What all share (experiment): KINOMEscan competition binding
What all share (details): compound 10.0 µM

Assay [1] deals with ABL1 (human), P00519 [Y253F].
The test system of assay [2] is ALK (human), Q9UM73 [C1156Y].
In assay [3] the test system is ALK (human), Q9UM73 [L1196M].
In assay [4] the test system is EGFR (human), P00533 [747-751 del / S ins].
The subject of assay [5] is EGFR (human), P00533 [752-759 del].
For assay [6], the system named is EGFR (human), P00533 [T790M/L858R].
For assay [7], the system named is EGFR (human), P00533 [T790M].
Assay [8] relates to FLT3 (human), P36888 [D835H].
Assay [9] deals with FLT3 (human), P36888 [R834Q].
Assay [10] has as its system KIT (human), P10721 [L576P].
Assay [11] has as its system KIT (human), P10721 [V559D/V654A].
The test system of assay [12] is MET (human), P08581 [Y1235D].
Assay [13] has as its system RET (human), P07949 [M918T].
Assay [14] has as its system RET (human), P07949 [V804M].

The structures appear in SMILES notation.

Sequence of RET (human), P07949 [V804M] (P07949 whole entry V804M, looked up): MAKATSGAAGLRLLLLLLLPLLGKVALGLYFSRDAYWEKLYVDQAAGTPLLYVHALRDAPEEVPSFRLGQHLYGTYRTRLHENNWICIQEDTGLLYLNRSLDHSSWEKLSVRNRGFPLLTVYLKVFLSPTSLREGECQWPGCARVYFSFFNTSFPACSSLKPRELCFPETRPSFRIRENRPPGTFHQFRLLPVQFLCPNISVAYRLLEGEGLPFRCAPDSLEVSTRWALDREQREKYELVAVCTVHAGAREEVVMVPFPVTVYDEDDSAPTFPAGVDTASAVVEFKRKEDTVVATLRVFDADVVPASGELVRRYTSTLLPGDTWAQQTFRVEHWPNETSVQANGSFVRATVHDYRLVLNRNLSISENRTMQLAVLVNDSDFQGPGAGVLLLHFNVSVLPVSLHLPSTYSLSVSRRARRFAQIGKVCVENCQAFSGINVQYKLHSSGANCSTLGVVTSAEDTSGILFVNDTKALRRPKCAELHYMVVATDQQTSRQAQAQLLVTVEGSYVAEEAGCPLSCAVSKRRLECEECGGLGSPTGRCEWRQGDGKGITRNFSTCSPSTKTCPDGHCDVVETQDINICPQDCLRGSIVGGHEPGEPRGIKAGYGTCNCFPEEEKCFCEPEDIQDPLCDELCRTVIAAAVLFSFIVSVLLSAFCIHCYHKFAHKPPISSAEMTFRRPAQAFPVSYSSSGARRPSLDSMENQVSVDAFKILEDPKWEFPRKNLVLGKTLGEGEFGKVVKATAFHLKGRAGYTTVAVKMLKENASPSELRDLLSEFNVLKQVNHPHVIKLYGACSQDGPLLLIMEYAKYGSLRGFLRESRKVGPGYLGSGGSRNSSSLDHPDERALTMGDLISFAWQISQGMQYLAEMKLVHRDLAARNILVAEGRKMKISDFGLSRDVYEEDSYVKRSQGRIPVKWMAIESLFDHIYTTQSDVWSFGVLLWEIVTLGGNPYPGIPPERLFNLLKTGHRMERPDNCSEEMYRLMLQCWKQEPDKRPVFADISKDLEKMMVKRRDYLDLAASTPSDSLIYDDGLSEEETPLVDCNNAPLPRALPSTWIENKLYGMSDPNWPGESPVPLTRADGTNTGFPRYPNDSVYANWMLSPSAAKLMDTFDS
Sequence of ALK (human), Q9UM73 [L1196M] (Q9UM73 whole entry L1196M, looked up): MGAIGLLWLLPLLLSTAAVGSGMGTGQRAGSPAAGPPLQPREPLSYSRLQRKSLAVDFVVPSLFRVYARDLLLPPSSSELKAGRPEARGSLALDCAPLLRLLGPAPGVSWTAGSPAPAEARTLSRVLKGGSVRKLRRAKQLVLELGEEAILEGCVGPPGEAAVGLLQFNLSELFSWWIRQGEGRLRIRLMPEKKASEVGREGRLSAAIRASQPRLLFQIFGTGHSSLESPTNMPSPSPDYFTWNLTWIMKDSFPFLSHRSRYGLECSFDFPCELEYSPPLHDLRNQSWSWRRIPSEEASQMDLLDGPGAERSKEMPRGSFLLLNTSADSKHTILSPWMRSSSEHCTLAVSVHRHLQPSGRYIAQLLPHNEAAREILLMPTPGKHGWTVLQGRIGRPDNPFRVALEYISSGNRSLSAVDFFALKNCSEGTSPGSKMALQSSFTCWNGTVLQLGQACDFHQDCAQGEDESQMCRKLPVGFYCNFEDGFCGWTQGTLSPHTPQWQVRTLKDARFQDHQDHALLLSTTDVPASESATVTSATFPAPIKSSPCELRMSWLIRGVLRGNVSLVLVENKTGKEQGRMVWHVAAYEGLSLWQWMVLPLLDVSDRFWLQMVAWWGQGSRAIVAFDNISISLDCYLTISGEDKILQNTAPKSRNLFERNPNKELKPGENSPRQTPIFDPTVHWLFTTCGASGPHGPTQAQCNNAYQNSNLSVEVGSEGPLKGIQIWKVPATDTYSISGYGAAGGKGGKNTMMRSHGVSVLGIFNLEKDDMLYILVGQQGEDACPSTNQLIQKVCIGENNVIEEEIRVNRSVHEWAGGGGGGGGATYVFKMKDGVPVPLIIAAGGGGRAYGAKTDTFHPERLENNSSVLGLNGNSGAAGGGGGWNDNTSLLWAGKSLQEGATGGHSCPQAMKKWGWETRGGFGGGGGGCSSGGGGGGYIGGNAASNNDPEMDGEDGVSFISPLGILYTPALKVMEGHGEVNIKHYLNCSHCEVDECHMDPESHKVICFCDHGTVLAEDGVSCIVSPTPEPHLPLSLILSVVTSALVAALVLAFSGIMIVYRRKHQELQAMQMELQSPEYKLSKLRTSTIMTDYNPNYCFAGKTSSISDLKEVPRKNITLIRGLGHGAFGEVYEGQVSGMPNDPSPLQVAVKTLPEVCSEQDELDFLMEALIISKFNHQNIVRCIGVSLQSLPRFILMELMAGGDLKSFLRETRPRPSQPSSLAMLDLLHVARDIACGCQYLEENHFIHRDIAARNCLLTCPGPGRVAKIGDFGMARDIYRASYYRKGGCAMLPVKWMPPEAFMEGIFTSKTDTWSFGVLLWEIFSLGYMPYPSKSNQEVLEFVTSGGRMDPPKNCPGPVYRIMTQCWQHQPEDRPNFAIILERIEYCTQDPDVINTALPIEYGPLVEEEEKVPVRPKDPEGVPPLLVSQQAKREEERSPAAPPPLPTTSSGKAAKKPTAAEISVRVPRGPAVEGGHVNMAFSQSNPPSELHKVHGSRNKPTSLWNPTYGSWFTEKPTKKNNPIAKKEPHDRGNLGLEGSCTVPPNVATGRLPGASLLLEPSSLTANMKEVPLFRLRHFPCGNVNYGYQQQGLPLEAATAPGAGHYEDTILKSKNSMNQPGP
Sequence of ALK (human), Q9UM73 [C1156Y] (Q9UM73 whole entry C1156Y, looked up): as the sequence (Q9UM73 whole entry L1196M, looked up) above, with C1156Y, M1196L counted along it
Sequence of KIT (human), P10721 [V559D/V654A] (P10721 whole entry V559D/V654A, looked up): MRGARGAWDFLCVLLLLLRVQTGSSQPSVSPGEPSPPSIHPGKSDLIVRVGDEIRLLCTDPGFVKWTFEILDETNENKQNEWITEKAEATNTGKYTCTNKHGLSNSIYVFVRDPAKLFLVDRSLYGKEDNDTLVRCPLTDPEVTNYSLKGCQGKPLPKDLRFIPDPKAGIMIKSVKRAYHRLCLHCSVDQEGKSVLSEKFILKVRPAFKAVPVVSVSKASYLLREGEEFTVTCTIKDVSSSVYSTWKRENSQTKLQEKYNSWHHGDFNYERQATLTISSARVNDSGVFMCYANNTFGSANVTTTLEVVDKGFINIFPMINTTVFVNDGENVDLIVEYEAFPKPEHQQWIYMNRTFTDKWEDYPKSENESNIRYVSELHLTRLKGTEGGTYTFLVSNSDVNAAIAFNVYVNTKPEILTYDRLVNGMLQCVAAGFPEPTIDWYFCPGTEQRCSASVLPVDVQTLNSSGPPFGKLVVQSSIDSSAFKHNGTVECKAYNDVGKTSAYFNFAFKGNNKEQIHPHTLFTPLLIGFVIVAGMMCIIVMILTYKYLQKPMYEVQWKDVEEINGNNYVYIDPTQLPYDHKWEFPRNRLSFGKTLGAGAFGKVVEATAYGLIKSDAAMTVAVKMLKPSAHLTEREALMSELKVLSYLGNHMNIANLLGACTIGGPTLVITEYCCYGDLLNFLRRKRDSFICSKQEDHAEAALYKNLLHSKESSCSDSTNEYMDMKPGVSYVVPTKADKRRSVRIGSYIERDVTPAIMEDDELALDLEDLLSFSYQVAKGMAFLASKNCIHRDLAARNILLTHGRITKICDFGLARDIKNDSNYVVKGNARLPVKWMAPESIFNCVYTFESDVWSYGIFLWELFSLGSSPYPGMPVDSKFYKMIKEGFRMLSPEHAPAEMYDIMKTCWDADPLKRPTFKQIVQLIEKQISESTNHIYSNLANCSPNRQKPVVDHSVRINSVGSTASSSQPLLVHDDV
Sequence of KIT (human), P10721 [L576P] (P10721 whole entry L576P, looked up): as the sequence (P10721 whole entry V559D/V654A, looked up) above, with D559V, L576P, A654V counted along it
Sequence of RET (human), P07949 [M918T] (P07949 whole entry M918T, looked up): as the sequence (P07949 whole entry V804M, looked up) above, with M804V, M918T counted along it

Take `COc1cc2ncnc(Nc3cccc(Cl)c3)c2cc1OC`: the kinase still bound, per cent of control in [1] stood at 2.3%; in [2] it was 31%; in assay [3], 63%; in assay [4] it was 3.2%; in assay [5], 2.5%; in assay [6], 22%. The kinase still bound, per cent of control came to 1.3% in assay [7]; 15% in assay [8]; 58% in assay [9]; 56% in [10]; 82% in assay [11]; 100% in assay [12]. For the same molecule, the kinase still bound, per cent of control in [13] turned out to be 3.4%; in assay [14] it was 94%.

The record behind these values is the kinase profiling compilation of Christmann-Franck et al. (2016).
